In patent US20170022258A1, “PEPTIDES FOR USE IN THE TREATMENT OF IL-1 RELATED DISEASES AND CONDITIONS” (C4M PHARMACEUTICALS PTY LTD., priority 2011, published 2017):
Like-named read-outs stand apart in the source and are kept apart here. Non-standard residues stand in square brackets, D forms with d. Residues, ends and D or L forms follow the SMILES beside them. No end group written: not given here.

T1: IL-1 receptor (Homo sapiens, UniProt P14778)
T1 construct: confluent human monocytes, which express the IL-1 receptor; endogenous in cells; host or cells: human monocytes
T1 sequence (P14778 18-569): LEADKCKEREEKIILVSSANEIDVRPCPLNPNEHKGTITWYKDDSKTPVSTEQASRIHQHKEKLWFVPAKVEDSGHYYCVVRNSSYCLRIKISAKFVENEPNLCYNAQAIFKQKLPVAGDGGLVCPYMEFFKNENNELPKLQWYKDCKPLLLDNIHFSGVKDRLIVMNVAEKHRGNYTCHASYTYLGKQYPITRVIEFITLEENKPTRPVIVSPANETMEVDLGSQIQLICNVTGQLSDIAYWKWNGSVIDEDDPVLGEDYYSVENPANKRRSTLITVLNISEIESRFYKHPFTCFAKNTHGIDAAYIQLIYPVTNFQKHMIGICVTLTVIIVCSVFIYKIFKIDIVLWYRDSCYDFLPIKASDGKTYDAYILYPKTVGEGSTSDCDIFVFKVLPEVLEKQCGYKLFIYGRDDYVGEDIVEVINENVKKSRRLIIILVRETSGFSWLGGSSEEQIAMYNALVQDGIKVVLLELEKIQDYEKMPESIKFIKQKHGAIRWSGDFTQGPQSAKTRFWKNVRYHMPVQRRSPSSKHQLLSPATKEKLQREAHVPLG

T2: IL-1 receptor (IL-1R) expressed on human monocytes (human, UniProt P14778 18-569)
T2 sequence (looked up): T1 sequence (P14778 18-569)


Legend:
[1] = test system: thoroughbred having equine laminitis; assay: Effect of peptides on equine laminitis (Obel Lameness Grades); type: in vivo, horse; details: for Change in Obel Score: 1 mg intravenously, before vs 24 hours after injection, most negative = greatest improvement; for Duration (days) of effect on laminitis: single 1 mg intravenous, averaged, report by veterinarians
Procedure: Each of the peptides having the sequences 13, 14, 19 and 4 were also tested to determine their effect on equine laminitis. Each peptide was administered intravenously to a thoroughbred having equine laminitis. The peptides were prepared as compositions containing 1 mg of peptide dissolved in 5 ml of a solution comprising water, bicarbonate and either benzyl alcohol or methanol. The effect of the peptides on equine laminitis was judged by the Obel Lameness Grades, which is a system of rating degrees of lameness resulting from laminitis. […] Obel Grade III horses do resist having a foreleg lifted, and are reluctant to walk. Obel Grade IV horses will walk only if forced. The Obel Score for each of the horses was measured before administration of the peptide and 24 hours after injection of the peptide. […] The effect in reducing laminitis which was caused by one single injection of the peptides on laminitis was short-lived. Therefore, the duration of the effect of the peptides in reducing laminitis was further assessed by attending veterinarians.

[2] = test system: IL-1 stimulation of IL-8 in human skin fibroblasts; assay: Inhibition of IL-1 induced IL-8 in human fibroblasts; type: cell-based; details: inhibition of IL-1 stimulation of IL-8 in human skin fibroblasts; average of three measurements and standard error; read-out: Binding (IC50 nM)
Procedure: Inhibition of IL-1 induced IL-8 in human fibroblasts was determined using normal human dermal fibroblast cells cultured in DMEM with 10% fetal calf serum in 48-well plates.
Twenty-four hours before initiation of the experiment, the medium was changed to DMEM with 0.2% fetal calf serum. Each peptide was added to confluent cells, which were then pulsed for 30 min with rIL-I,B (which was obtained from R & D Systems) at 50 pg/ml. The cells were washed four times with PBS, and fresh DMEM/0.2% fetal calf serum was added to each well. After 5 hr of incubation, the culture media were collected and analyzed by ELISA for IL-8 (which was obtained from R & D Systems). Maximal activation, with IL-1 only, was 2530±13 pg/ml of IL-8. Nonspecific activation, determined in the presence of 1000-fold excess IL-1Ra, was 30±9 pg/ml of IL-8 (n=3).

[3] = Stability of peptide once dissolved in solution (1 month); type: physicochemical; details: 1 mg in 5 ml water, bicarbonate and benzyl alcohol (19, 4) or methanol (13, 14); for Stability of peptide once dissolved in solution (at 1 month), Room Temp (month): room temperature
Procedure: Each of the peptides having the sequences 13, 14, 19 and 4 were tested to determine their stability in a solution containing (preferred composition above) water, bicarbonate and either benzyl alcohol (peptide 19 and 4) or methanol (peptide 13 and 14). Each of the peptides were held for a period of 1 month at either 4° C. or at room temperature.
1 mg of each peptide was added to the water, bicarbonate and either benzyl alcohol or methanol solution and the solution was gently agitated for 1 hour at room temperature before standing at either 4° C. or at room temperature for a period of 1 month.

IL-1 receptor = molecular target: T1, IL-1 receptor; assay: Radioligand competition binding assay (125I-labeled IL-1α) on human monocytes; details: IL-1 binding antagonism on human monocytes; average of three measurements and standard error
Procedure: (§1) Radioligand competition binding assays were performed in 96-well plates containing confluent human monocytes, which express the IL-1 receptor. Wells were washed three times with binding buffer, and binding buffer was placed in each well. Peptides were resuspended in dimethyl sulfoxide at 20 mM and diluted in binding buffer to the desired starting concentration. Using a Beckman robotic system, five 3-fold dilutions were prepared, and peptide solution was transferred to duplicate receptor-containing wells. To each well, radioactive ^125Iodine-labeled IL-Ia (Amersham) was added to a final concentration of 40 pM, and the plates were placed on a shaking platform at 4° C. for 2 hr. Plates were washed with PBS using a plate washer, and bound ^125I-labeled IL-la was eluted for 10 min with 0.1 M NaOH and counted in a gamma counter. IC50 values were determined by fitting the data to a two-parameter logistic equation. In all cases, nonspecific binding was determined by the addition of 3 μM of recombinant IL-Ia.

[4] = Human plasma stability trials; type: in vitro ADME; details: 37° C., 12 hours, read-out: ½ Life human plasma
Procedure: 1 mg of each peptide was added to the plasma and the solution was gently agitated for 2 minutes at room temperature before standing at 37° C. for a period of 12 hours.

[5] = Solubility of peptide under different solvent conditions; type: physicochemical; details: 30 min room temperature
Procedure: 100 mg of each peptide was added to 100 ml total of water plus the solvents, and the solution was gently agitated for 30 min at room temperature.

[6] = molecular target: IL-1 receptor (IL-1R) expressed on human monocytes (human) (UniProt P14778); assay: radioligand competition, 40 pM 125I-IL-1α on confluent human monocytes
[7] = molecular target: IL-1 receptor (IL-1R) expressed on human monocytes (human) (UniProt P14778); assay: cell-based or functional assay
[8] = molecular target: T2, IL-1 receptor (IL-1R) expressed on …; assay: cell-based or functional assay
[9] = molecular target: T2, IL-1 receptor (IL-1R) expressed on …; assay: radioligand competition, 40 pM 125I-IL-1α on confluent human monocytes
Procedure: as §1, with “¹²⁵Iodine-labeled” for “^125Iodine-labeled”, “¹²⁵I-labeled” for “^125I-labeled”, “IC₅₀” for “IC50”

[10] = benzyl alcohol (0.1-1%) in water, benzyl alcohol (0.1-1%), 100 mg peptide in 100 ml, read-out: Solubility: Benzyl Alcohol
[11] = hydrochloric acid (0.1-1%) in water, hydrochloric acid (0.1-1%), 100 mg peptide in 100 ml water plus solvent, read-out: Solubility: Acid
[12] = methanol (1-10%) in water, methanol (1-10%), 100 mg peptide in 100 ml, read-out: Solubility: Methanol
[13] = sodium bicarbonate (0.1-1%) in water, sodium bicarbonate (0.1-1%), 100 mg peptide in 100 ml, read-out: Solubility: Base

Molecule	Change in Obel Score [1]	Duration (days) of effect on laminitis [1]	IC50 [2]	Stability of peptide once dissolved in solution (at 1 month), 4° C. (month) [3]	Stability of peptide once dissolved in solution (at 1 month), Room Temp (month) [3]	half-life [4]	solubility at 30 min [5, 10]	solubility at 30 min [5, 11]	solubility at 30 min [5, 13]	IC50, in vitro inhibition of IL-1 stimulation of IL-8 in human skin fibroblasts (rIL-1β 50 pg/ml, IL-8 ELISA) [8]	IC50 [9]	further results
CC(=O)N[C@@H](CCC(=O)O)C(=O)N[C@H](C(=O)N1CCC[C@H]1C(=O)N[C@@H](Cc1ccccc1)C(=O)N[C@H](C(=O)N[C@@H](Cc1c[nH]c2ccccc12)C(=O)N[C@@H](CCC(=O)O)C(=O)N[C@@H](CCC(=O)O)C(=O)N[C@@H](CO)C(=O)N[C@@H](CC(N)=O)C(=O)N[C@@H](C)C(=O)N[C@@H](Cc1ccc(O)cc1)C(=O)N[C@@H](Cc1ccc(O)cc1)C(=O)N[C@@H](Cc1c[nH]c2ccccc12)C(=O)N[C@@H](CCC(N)=O)C(=O)N1CCC[C@H]1C(=O)N[C@@H](Cc1ccc(O)cc1)C(=O)N[C@@H](C)C(=O)N[C@@H](CC(C)C)C(=O)N1CCC[C@H]1C(=O)N[C@@H](CC(C)C)C(=O)O)[C@@H](C)O)[C@@H](C)O [SEQ ID NO. 13, reference compound] (Ac-ETPFTWEESNAYYWQPYALPL-OH; C-terminus assumed)	−0.5	1 days	11 nM	21%	1%	46 min	< 1000 µg/mL	< 1000 µg/mL	< 1000 µg/mL			IC50 (IL-1 receptor): 11 nM; solubility at 30 min [5, 12]: > 1000 µg/mL
CC(=O)N[C@@H](Cc1ccccc1)C(=O)N[C@@H](CCC(=O)O)C(=O)N[C@@H](Cc1c[nH]c2ccccc12)C(=O)N[C@H](C(=O)N1CCC[C@H]1C(=O)NCC(=O)N[C@@H](Cc1ccc(O)cc1)C(=O)N[C@@H](Cc1c[nH]c2ccccc12)C(=O)N[C@@H](CCC(N)=O)C(=O)N1CCC[C@H]1C(=O)N[C@@H](Cc1ccc(O)cc1)C(=O)N[C@@H](C)C(=O)N[C@@H](CC(C)C)C(=O)N1CCC[C@H]1C(=O)N[C@@H](CC(C)C)C(=O)O)[C@@H](C)O [SEQ ID NO. 19, Ac FEWTPGYWQPYALPL, reference compound] (Ac-FEWTPGYWQPYALPL-OH; C-terminus assumed)	−2.1	2 days	10 nM	95%	48%	49 min	> 1000 µg/mL	< 1000 µg/mL	< 1000 µg/mL			
CC(=O)N[C@H](CC(C)C)C(=O)N1CCC[C@@H]1C(=O)N[C@H](CC(C)C)C(=O)N[C@H](C)C(=O)N[C@H](Cc1ccc(O)cc1)C(=O)N1CCC[C@@H]1C(=O)N[C@H](CCC(N)=O)C(=O)N[C@H](Cc1c[nH]c2ccccc12)C(=O)N[C@H](Cc1ccc(O)cc1)C(=O)N[C@H](Cc1ccc(O)cc1)C(=O)N[C@H](C)C(=O)N[C@H](CC(N)=O)C(=O)N[C@H](CO)C(=O)N[C@H](CCC(=O)O)C(=O)N[C@H](CCC(=O)O)C(=O)N[C@H](Cc1c[nH]c2ccccc12)C(=O)N[C@@H](C(=O)N[C@H](Cc1ccccc1)C(=O)N1CCC[C@@H]1C(=O)N[C@@H](C(=O)N[C@H](CCC(=O)O)C(=O)O)[C@H](C)O)[C@H](C)O [SEQ ID NO. 14] (Ac-[dL][dP][dL][dA][dY][dP][dQ][dW][dY][dY][dA][dN][dS][dE][dE][dW][dT][dF][dP][dT][dE]-OH; C-terminus assumed)	−1.1	2 days	11 nM	78%	18%	333 min	< 1000 µg/mL	< 1000 µg/mL	< 1000 µg/mL			IC50 (IL-1 receptor): 9.2 nM; solubility at 30 min [5, 12]: > 1000 µg/mL
Ac-[dL][dP][dL][dA][dY][dP][dQ][dW][dY][dR][dE]G[dS][dQ][dR][dW][dR][dD][dY]G[dD] (not fully specified (residues 12, 20); printed as Ac-LPLAYPQWYREGSQRWRDYGD) [peptide of SEQ ID NO: 21 (Ac-…, D-amino acids)]												IC50 [6]: 240 nM; IC50, in vitro inhibition of IL-1 stimulation of IL-8 in human skin fibroblasts (rIL-1β 50 pg/ml, IL-8 ELISA) [7]: 730 nM
Ac-TANVSSFEWTPGYWQPYALPL (also called peptide 17) [peptide of SEQ ID NO: 17 (Ac-TANVSSFEWTPGYWQPYALPL)]										76 nM	7.6 nM	
Ac-FEWTPGYWQPYALPL (also called peptide 19) [peptide of SEQ ID NO: 19 (Ac FEWTPGYWQPYALPL)]										10 nM	7.1 nM	
Ac-FTWEESNAYYWQPYALPL (also called peptide 15) [peptide of SEQ ID NO: 15 (Ac-FTWEESNAYYWQPYALPL)]										16 nM	20 nM	
Ac-DGYDRWRQSGERYWQPYALPL (also called peptide 20) [peptide of SEQ ID NO: 20 (Ac-DGYDRWRQSGERYWQPYALPL)]										19 nM	8.1 nM	
